In PMC12647143 (Nature Communications, 2025):

Assays:
MRSA ATCC 33591 [1] = assay: Antimicrobial-resistance test; type: cell-based, methicillin-resistant Staphylococcus aureus; conditions: for increase in MIC after continuous 14 passages exposure: MRSA ATCC 33591, 1/2 × MIC
[2] = tested on: K. pneumoniae ATCC 700603; assay: Antimicrobial-resistance test; type: cell-based, Klebsiella pneumoniae; conditions: 1/2 × MIC
MRSA ATCC 33591 [3] = assay: ROS accumulation assay; type: cell-based, methicillin-resistant Staphylococcus aureus; conditions: 2 × MIC and 4 × MIC
MRSA ATCC 33591 [4] = assay: Bacteria-induced pneumonia model; type: in vivo, Kunming mice; conditions: MRSA ATCC 33591 pneumonia model
[5] = tested on: K. pneumoniae ATCC 700603; assay: ROS accumulation assay; type: cell-based, Klebsiella pneumoniae; conditions: 1 ×, 2 ×, 4 × MIC
[6] = Renal tubular injury score; conditions: AMP 1003 20 or 30 mg/kg; polymyxin B 20 mg/kg; score 0-5
[7] = ELISA of NGAL, Cystatin C and Kim-1 in serum and urine; conditions: 20 mg/kg or 30 mg/kg; 7 days
[8] = tested on: K. pneumoniae ATCC 700603; assay: Bacteria-induced pneumonia model; type: in vivo, Kunming mice
[9] = In vivo toxicity assay, single intraperitoneal injection
[10] = RT-qPCR of Cystatin C, Lipocalin 2, Havcr1 mRNA in kidney; type: in vivo, Kunming mice; conditions: AMP 1003 20 or 30 mg/kg; polymyxin B 20 mg/kg
mammalian cells = conditions: cited from earlier work
[11] = tested on: multidrug-resistant bacteria; conditions: cited from earlier work

CNC(C)C1CCC(N)C(OC2C(N)CC(N)C(OC3OCC(C)(O)C(NC)C3O)C2O)O1 (centres unmarked) [Gentamicin]
increase in MIC after continuous 14 passages exposure (MRSA ATCC 33591 [1]): up to 128 fold
increase in MIC (cross-resistance) (MRSA ATCC 33591 [1]; final generation of MRSA ATCC 33591 treated with the peptide for 14 passages): 128 fold
increase in MIC after continuous 14 passages exposure [2]: up to 512 fold

C[C@@H](O)[C@H]1C(=O)N2C(C(=O)O)=C(SCCN=CN)C[C@H]12 [Imipenem]
increase in MIC after continuous 14 passages exposure (MRSA ATCC 33591 [1]): up to 8 fold
increase in MIC after continuous 14 passages exposure [2]: up to 16 fold

CN(C)c1ccc(O)c2c1C[C@H]1C[C@H]3[C@H](N(C)C)C(O)=C(C(N)=O)C(=O)[C@@]3(O)C(O)=C1C2=O [Minocycline]
increase in MIC after continuous 14 passages exposure [2]: up to 8 fold

CN[C@H](CC(C)C)C(=O)N[C@H]1C(=O)N[C@@H](CC(N)=O)C(=O)N[C@H]2C(=O)N[C@H]3C(=O)N[C@H](C(=O)N[C@H](C(=O)O)c4cc(O)cc(O)c4-c4cc3ccc4O)[C@H](O)c3ccc(c(Cl)c3)Oc3cc2cc(c3O[C@@H]2O[C@H](CO)[C@@H](O)[C@H](O)[C@H]2O[C@H]2C[C@](C)(N)[C@H](O)[C@H](C)O2)Oc2ccc(cc2Cl)[C@H]1O [Vancomycin]
ROS accumulation (MRSA ATCC 33591 [3]): no such effect
lung histology (H&E) (MRSA ATCC 33591 [4]): substantially alleviated these pathological changes

Polymyxin B
ROS accumulation [5]: ROS elevation was observed only at 2 × MIC and 4 × MIC
renal tubular injury scores [6]: significantly higher injury scores than normal mice
NGAL, Cystatin C and Kim-1 levels in serum or urine [7]: did not cause noticeable changes
lung histology (H&E) ([8]; K. pneumoniae ATCC 700603 pneumonia model): substantially alleviated these pathological changes
decrease of bacterial load in the lungs ([8]; K. pneumoniae ATCC 700603 pneumonia, 5 mg/kg i.p. at 4, 8, 12 h, 24 h, n = 6): 1.58 log10CFU
organ indices (heart, liver, spleen, lung, kidney) ([9]; 7 days, vs control group): higher than that in the control group
BUN and CREA levels ([9]; 7 days, AMP 1003 20, 30 or 40 mg/kg, polymyxin B 20 mg/kg): comparable to that of control group
hepatotoxicity (ALT, AST) ([9]; 7 days, AMP 1003 all doses, polymyxin B 20 mg/kg): no apparent hepatotoxicity
organ histology (H&E) ([9]; AMP 1003: only at 40 mg/kg): more severe tissue damage
Cystatin C, Lipocalin 2 and Havcr1 mRNA in the kidneys [10]: notable increase in Cystatin C and Lipocalin 2 mRNA levels

melittin
concentration causing cytotoxicity and hemolysis (mammalian cells): 2000 nM
MIC [11]: 1 to 16 µM
